{
  "source": "patent US11672786B2",
  "about": "“Methods of treating diseases associated with repeat instability” (The Hospital for Sick Children, priority 2016, dated 2023)",
  "key": {"[1]": {"tested_on": "HT1080-(CAG)850 cells", "test": "cellular distribution by confocal microscopy", "type": "cell-based, human", "protocol": "(§1) Scale bar represents 20 μm. […] The cell viability was estimated with WST-1 assays. Values represent the means of three independent measures±SD. […] Error bars indicate the SD of triplicate experiments. […] The dashed line indicates the peak CAG size. Allele lengths are grouped in bins spanning 10 repeats. More than 230 alleles were sized per group.\nHT1080-(CAG)850 cells were incubated with 50-μM NBD-labeled NA for 48 hr and Cell Light Plasma Membrane-RFP, BacMam 2.0 (Life Technologies, Carlsbad, Calif.), then fixed for 15 min at RT with 4% paraformaldehyde and washed 2 times for 10 min in phosphate buffered saline (PBS). Cells were mounted with Vectashield hard-set mounting media that contains DAPI (Vector Laboratories, Burlingame, Calif.). Fluorescence images were obtained using Olympus FV1000D confocal laser scanning microscope (Olympus, Tokyo, Japan)."}, "[2]": {"tested_on": "CASK, HTT (normal allele), Mfd15 and TBP loci in HD fibroblasts", "test": "repeat-tract lengths of non-expanded loci in HD fibroblasts", "type": "cell-based, human", "description": "as §1\nFIG. 12 are representative data showing ultra-sensitive small-pool PCR for the non-expanded CAG/CTG repeat length of CASK in HD primary fibroblast cells (Panel A of FIG. 12) and HT1080-(CAG)850 cells (Panel B of FIG. 12). […] Repeat lengths were analyzed by Agilent BioAnalyzer.\nGenomic DNA was extracted from HT1080-(CAG)850 clones and HD primary fibroblasts using the Gentra Puregene Cell Kit (Qiagen, Valencia, Calif.). […] At least 50 alleles were analyzed for each of the three experiments (more than 150 alleles for a total study). […] For the histograms in FIGS. 4D, 4E, 10, 11, 5B, 5D, 5E, 14 and 15B, the Y-axis, “% of repeat population” was calculated by determining the proportion of >50 individual small-pool PCR reactions across the CAG repeat tract, that harbored a certain size of repeat product with a certain length. […] Length distributions were determined as follows: Small-pool PCR followed by Southern blot for analysis of CAG/CTG repeat length. […]"}},
  "data": [
    {"substance": "naphthyridine-azaquinolone", "values": [
      {"measurement": "cell permeability", "setting": "[1]", "value": "cell-permeable and can enter the nuclei"},
      {"measurement": "length variation at CASK, HTT (normal allele), and Mfd15 loci", "setting": "[2]; 40 days incubation with or without NA", "value": "Length variation was not observed"},
      {"measurement": "length distribution of non-mutant TBP repeats (38 and 34 repeats)", "setting": "[2]; HD patient cells, 40 days", "value": "did not change the length distribution of the TBP repeats"}
    ]}
  ]
}
